Here are results for two molecules from patent publication US20250275537A1, “CARBOXAMIDE APYRASE INHIBITORS” (Texas Crop Science, Inc., priority 2024, published 2025).

One experiment has as its system Microdochium nivale. The experiment is described as follows: In vitro assessment of combination activity with fungicides (Method 2), Microdochium nivale. The experiment is classed as cell-based. The following applies: in combination with azoxystrobin; visual % control on agar. On the procedure:
(§1) Selected compounds are assessed in combination with fungicides against a range of commercially important plant pathogenic fungi.
(§2) The test is conducted as follows. A fungicide is applied to a fungal plant pathogen at a rate slightly below that at which it gave any control, in combination with a suitable dose of the test compound. The test compound is recorded as active if control of the pathogen is observed.
(§3) In more detail, the test is conducted as follows. For each combination of fungicide, pathogen and test compound, the following wells are used. Well 1 contains a fungal pathogen growing on agar, and a fungicide at a rate just below that at which it gives any control of the pathogen. Well 2 is the same as Well 1, except that the test compound is also added at Rate 1. Well 3 is the same as Well 2, except that the test compound is added at Rate 2, where Rate 2 was higher than Rate 1. Finally, as a benchmark. Well 4 is the same as Well 1, except that it contains the fungicide at a higher rate, at which it gives partial control of the pathogen. Each of the Wells 1 to 4 are run in duplicate, giving a total of 8 wells for each combination of fungicide, pathogen and test compound. For each well, after a suitable period of incubation, a visual assessment of the % control of the pathogen by the fungicide is made. […]

Experiment [1] has as its system strain of Zymoseptoria tritici with a reduced susceptibility to strobilurin fungicides. Description: In vitro assessment of combination activity with fungicides (Method 2), Z. tritici strobilurin-reduced-susceptibility strain. The format is cell-based. Conditions: any fungicide (azoxystrobin, fluxapyroxad, desthio prothioconazole). On the procedure: as §1, §2, §3

Experiment [2] relates to strain of Zymoseptoria tritici with a reduced susceptibility to SDHI fungicides. The experiment is described as follows: In vitro assessment of combination activity with fungicides (Method 2), Z. tritici SDHI-reduced-susceptibility strain. The experiment is classed as cell-based. Conditions: any fungicide (azoxystrobin, fluxapyroxad, desthio prothioconazole). On the procedure: as §1, §2, §3

The test system of a further experiment is apyrase. The experiment is described as follows: Apyrase inhibition assay (Method 1). The format is biochemical. The following applies: inhibitor conc at 1 mM stock, 10 μl per well; 1 hr room temperature; rounded average of at least two assay results.
The subject of experiment [3] is Brown Rust (Puccinia recondita) on wheat. Description: Greenhouse crop test: Brown Rust on wheat in combination with commercial fungicides (Method 3). The format is in vivo. The following applies: Balaya 0.25 L/ha, evaluated at fourteen days. On the procedure: In this method, exemplary compounds were evaluated for their ability to control Brown Rust (Puccinia recondita) on wheat, in a controlled greenhouse environment in combination with one of four fungicides, Amistar, Imtrex, Proline or Balaya. In these studies, JB Diego wheat plants were used. Seeds were sown in 9 cm diameter pots to a depth of 1 to 2 cm using Petersfield potting compost (75% medium grade peat, 12% screened sterilized loam, 3% medium grade vermiculite, 10% grit (5 mm screened, lime free), 1.5 kg PG mix per m3, lime to pH5.5-6.0 and wetting agent (Vitax Ultrawet 200 ml per m3) and germinated/grown at 23 C under a 16 h day/8 h night light regime. Plants were treated two to three weeks after sowing when they were at the BBCH 11 growth stage (first pair of true leaves (unifoliate) unfolded). Plants were inoculated with the Puccinia triticina (Brown rust on wheat plants) 24 hours after treatment. A track sprayer was used to treat the plants with the mixture of commercial fungicide and test compound using a water volume of 200 L/ha. […] Each plant was evaluated at fourteen days (once the disease symptoms were fully expressed) for % control of the disease. […] Also, each commercial fungicide was tested on its own as a part of each treatment, this being benchmark against which the experimental compounds were evaluated. […]

In the case of `O=C(Nc1cccc([N+](=O)[O-])c1)c1cccc(S(=O)(=O)Nc2ccc(Br)cc2)c1` [Roux Compound 13], the “enhancement of fungicide activity (combination activity)” value in the experiment on Microdochium nivale is on record as “enhancing the activity of azoxystrobin”; in experiment [1], “failing to enhance activity of any fungicide”; in experiment [2], “failing to enhance activity of any fungicide”.
Regarding `O=C(Nc1ccccc1)c1ccc(C(=O)Nc2ccccc2)cc1` [Compound I-3, N^1,N^4-diphenylterephthalamide], the “% Inhibition of Apyrase” value in the experiment with apyrase was “A (A indicates inhibition above 30%)”. For the same molecule, the “additional Brown Rust control in combination with Balaya over Balaya alone” value in experiment [3] was “measurable additional Brown Rust control”.
